Data taken from patent US20140121237A1, “Methods for Inhibiting Virus Replication” (priority 2011, published 2014).
Read-outs that look alike come from different tables or passages of the source.

Key:
A/WSN/33 [1] = test: In vitro inhibition assay in BEAS2B cells, virus copies by qRT-PCR; assay type: cell-based, Influenza A virus
A/WSN/33 [2] = assay type: cell-based, Influenza A virus
A/WSN/33 [3] = test: Mouse infection, lung M gene copy number by qPCR; assay type: in vivo, BALB/c female mice; settings: prophylactic, NSC 95397 […], KN-93 10 mg/kg by gavage, lungs 48 h after infection
A/CA/04/09 = test: Mouse infection, lung infectious virus titer (TCID50 on MDCK cells); assay type: in vivo, BALB/c female mice; settings: NSC 95397 […], KN-93 10 mg/kg; for lung infectious virus (TCID50) vs control: prophylactic
CAMKIIB gene expression = assay type: in vivo, mice; settings: 10 mg/kg; 24 h and 48 h post-treatment
[4] = mouse, in vivo
A/WSN/33 [5] = settings: previously shown (literature); cited from earlier work
SLC22A8 gene [6] = assay type: cell-based, human; settings: A549 cells; varying concentrations; 24 and 48 h
A/WSN/33 [7] = test: Inhibition assay in A549 cells (qRT-PCR copy number, NP staining); assay type: cell-based, Influenza A virus; settings: A549 cells treated prophylactically or therapeutically, varying concentrations
A/New Calcdonia/20/90 [8] = test: as above; assay type: cell-based, Influenza A virus; settings: A549 cells treated prophylactically or therapeutically, varying concentrations
SLC22A8 gene [9] = system: SLC22A8 gene; design: species or system BALB/c mice; settings: mouse, in vivo
A/New Calcdonia/20/90 [10] = test: Influenza replication in lungs of mice (qRT-PCR, TCID50); assay type: in vivo, BALB/c mice; settings: mice treated with 10 or 200 mg/kg
Procedure: (§1) Animals. BALB/c female mice (6-8 week-old) were obtained from NCI. All experiments and procedures were Institutional Animal Care and Use Committee (IACUC) approved by the IACUC of UGA. The animals were kept alone in cages. They were allowed free access to water and food both before and during the experiments. All experiments were performed with 5 mice per group and repeated independently at least twice.
(§2) Drug treatment and infection. Probenecid was dissolved in PBS and injected intraperitoneally at final doses of 10 and 200 mg/kg body weight (about 0.2 ml per animal). Similar studies were done using the same doses but delivering by gavage. […] The treatments were 24 h or 48 h before infection. Prior to infection, mice were anesthetized with Avertin and infected by intranasal instillation with 50 μl of PBS containing 100 PFU of A/WSN/33 or A/New Calcdonia/20/90 influenza virus. The lungs of the mice were collected at 48 hip for qRT-PCR and TCID50. In some studies, Probenecid was administered at 48 h prior to influenza virus infection by tail vein injection (200 ul) where the following groups were evaluated (5 mice/group): Group 1—Probenecid 5.0 mg/kg; Group 2—Probenecid 0.5 mg/kg; Group 3—Probenecid 0.05 mg/kg; Group 4—Positive Control—KN93 (10 mg/kg); Group 5—Negative Control (PBS); Group 6—Probenecid 5.0 mg/kg no infection (gene silencing only).
(§3) Detection of virus replication. qRT-PCR and TCID50 of the lungs. The lungs of infected animals were longitudinally sectioned. One half of the lung was into TRizol (Invitrogen, Carlsbad, Calif., USA) for isolating total RNA. Another half lung was into MEM/without serum media for TCIT50. The qRT-PCR performance for both of virus replication and the gene expression was like in vitro.

A/WSN/33 [11] = test: as above; assay type: in vivo, BALB/c mice
Procedure: as §1, §2, §3

[12] = in vivo; cited from earlier work

COc1ccc(S(=O)(=O)N(CCO)c2ccccc2CN(C)C/C=C/c2ccc(Cl)cc2)cc1 [KN-93]
inhibition at 250 µM (A/WSN/33 [1]; Influenza A virus, WSN, BEAS-2B, read-out: inhibition of virus replication): > 80% | dose dependence of inhibition of virus replication (A/WSN/33 [1]; pretreatment 1 h, […]): inhibited influenza replication in a dose-dependent manner | number of NP-staining cells compared to control (A/WSN/33 [2]): not perceptibly affected | lung influenza M gene copy number vs control (A/WSN/33 [3]; 24 h before infection): significantly (p<0.05) shielded | lung influenza M gene copy number vs control (A/WSN/33 [3]; 48 h before infection): not statistically significant | lung infectious virus (TCID50) vs control (A/CA/04/09; 24 h before infection): significantly (p<0.05) different than control | lung infectious virus (TCID50) vs control (A/CA/04/09; 48 h before infection): not statistically significant | reduction of lung virus titers vs control (A/CA/04/09; treatment at 24 h or 48 hpi): no significant (p<0.05) effect | CAMKIIB gene expression in lungs (CAMKIIB gene expression): down-modulation | cell cytotoxicity (BEAS2B cells): insignificant | cell cytotoxicity (BEAS2B cells; 250 uM): negligible | cell cytotoxicity compared to the control (BEAS2B cells; 500 uM (highest drug concentration)): 20-30% | toxicity in mice treated with drugs only [4]: no apparent toxicity | influenza viral replication in MDCK cells (A/WSN/33 [5]): inhibits A/WSN/33 influenza viral replication in a dose-dependent manner

CCCN(CCC)S(=O)(=O)c1ccc(C(=O)O)cc1 [Probenecid, 4-(dipropylsulfamoyl)benzoic acid]
SLC22A8 gene expression (SLC22A8 gene [6]): effectively reduce SLC22A8 gene expression | influenza virus replication (A/WSN/33 [7]): refractory to influenza virus replication | influenza virus replication (A/New Calcdonia/20/90 [8]): refractory to influenza virus replication | SLC22A8 gene expression (SLC22A8 gene [9]): effectively reduce SLC22A8 gene expression | influenza virus replication in lungs (A/New Calcdonia/20/90 [10]): refractory to influenza virus replication | efficacy relative to Tamiflu (A/WSN/33 [11]; 10 mg/kg Probenecid, -24 or +24 h): as effective as Tamiflu treatment | influenza virus replication in lungs (A/WSN/33 [11]; mice treated prophylactically or therapeutically, varying concentrations): refractory to influenza virus replication | toxicity (A549 cells): without causing toxicity | increase of blood concentrations of Tamiflu (oseltamivir) [12]: more than double
